system: HCT116 cells; assay: Cell viability assay (CellTiter-Glo, 72 hours) in HCT116 human colorectal cancer cells; format: cell-based; settings: Homo sapiens, HCT-116; Table 5; HCT116, 72 hours; read-out: Activity
Summary of the method: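 Ten-point IC50 came from an asymmetric five-parameter fit of luminescence corrected to vehicle wells. ATP content was measured by CellTiter-Glo 72 h after dosing at 37 °C. Cells were seeded at 2,000/well the day before, with 0.5% DMSO in all wells.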

| IC50 [µM] | Structure (SMILES) |
| --- | --- |
| < 0.5 | CC#CCN1C(=O)c2ccccc2Cc2cc(Nc3nccc(C#N)c3C)ccc21 [2-((5-(But-2-yn-1-yl)-6-oxo-6,11-dihydro-5H-dibenzo[b,e]azepin-2-yl)amino)-3-methylisonicotinonitrile] |
| < 0.5 | CC#CCN1C(=O)c2ccccc2Sc2cc(Nc3ncnc(C#N)c3C)ccc21 [6-((10-(But-2-yn-1-yl)-11-oxo-10,11-dihydrodibenzo[b,f][1,4]thiazepin-7-yl)amino)-5-methylpyrimidine-4-carbonitrile] |
| < 0.5 | CC#CCN1C(=O)c2ccccc2Cc2cc(Nc3ncccc3F)ccc21 [5-(But-2-yn-1-yl)-2-((3-fluoropyridin-2-yl)amino)-5H-dibenzo[b,e]azepin-6 (11H)-one] |
| < 0.5 | CC#CCN1C(=O)c2ccccc2Sc2cc(Nc3cccnc3)ccc21 [10-(But-2-yn-1-yl)-7-(pyridin-3-ylamino)dibenzo[b,f][1,4]thiazepin-11 (10H)-one] |
| < 0.5 | CC#CCN1C(=O)c2ccccc2Sc2cc(Nc3nc(C)cnc3C)ccc21 [10-(But-2-yn-1-yl)-7-((3,6-dimethylpyrazin-2-yl)amino)dibenzo[b,f][1,4]thiazepin-11 (10H)-one] |
| < 0.5 | CCC/C=C/CN1C(=O)c2ccccc2Sc2cc(Nc3cc(C(C)C)ccn3)ccc21 [(E)-10-(Hex-2-en-1-yl)-7-((4-isopropylpyridin-2-yl)amino)dibenzo[b,f][1,4]thiazepin-11 (10H)-one] |
| < 0.5 | CCC/C=C/CN1C(=O)c2ccccc2Sc2cc(Nc3cnccn3)ccc21 [(E)-10-(Hex-2-en-1-yl)-7-(pyrazin-2-ylamino)dibenzo[b,f][1,4]thiazepin-11 (10H)-one] |
| < 0.5 | CCC/C=C/CN1C(=O)c2ccccc2Sc2cc(Nc3cc(F)ccn3)ccc21 [(E)-7-((4-Fluoropyridin-2-yl)amino)-10-(hex-2-en-1-yl)dibenzo[b,f][1,4]thiazepin-11(10H)-one] |

same assay, conditions: Homo sapiens, HCT-116; Table 6; HCT116, 72 hours; read-out: Activity

| IC50 [µM] | Structure (SMILES) |
| --- | --- |
| < 0.5 | CC#CCN1C(=O)c2ccccc2Sc2cc(NC3COCC3C)ccc21 (centres unmarked) [10-(But-2-yn-1-yl)-7-((4-methyltetrahydrofuran-3-yl)amino)dibenzo[b,f][1,4]thiazepin-11 (10H)-one] |

same assay, conditions: Table 1; HCT116, 72 hours; read-out: Activity

| IC50 [µM] | Structure (SMILES) |
| --- | --- |
| < 0.5 | CC#CCN1C(=O)c2ccc(Cl)cc2Sc2cc(NC(=O)N3CCC3)ccc21 |

same assay, conditions: Table 2; HCT116, 72 hours; read-out: Activity

| IC50 [µM] | Structure (SMILES) |
| --- | --- |
| < 0.5 | CC#CCN1C(=O)c2ccccc2Sc2cc(NC(=S)N3CCCC3)ccc21 |
| < 0.5 | CC#CCN1C(=O)c2ccccc2Sc2cc(NC(=S)N3CCCCC3)cnc21 [Table 2: —CH2CCMe; piperidin-1-yl; CH; N] |

same assay, conditions: Table 3; HCT116, 72 hours; read-out: Activity

| IC50 [µM] | Structure (SMILES) |
| --- | --- |
| < 0.5 | CC#CCN1C(=O)c2ccccc2Sc2cc(NC(=O)Nc3ccc4oc(C)nc4c3)ccc21 |
| < 0.5 | CC#CCN1C(=O)c2ccccc2Sc2cc(NC(=O)N[C@H]3C[C@H](O)C3)ccc21 [Table 3: —CH2CCMe; trans-3-OH-cBu; CH/CH] |

same assay, conditions: Table 4; HCT116, 72 hours; read-out: Activity

| IC50 [µM] | Structure (SMILES) |
| --- | --- |
| < 0.5 | CC#CCN1C(=O)c2ccccc2Sc2cc(NC(=S)Nc3ccc4scnc4c3)ccc21 |

same assay, conditions: Table 5; HCT116, 72 hours; read-out: Activity

| Structure (SMILES) | IC50 [µM] |
| --- | --- |
| C#CCN1C(=O)c2ccccc2Sc2cc(Nc3nc(C)cnc3C)ccc21 | < 0.5 |
| CC#CCN1C(=O)c2ccccc2Sc2cc(Nc3ncccc3C)cnc21 | < 0.5 |
| CC=CCN1C(=O)c2ccccc2Sc2cc(Nc3ncccc3F)cnc21 | < 0.5 |
| C#CCN1C(=O)c2ccccc2Sc2cc(Nc3cccnn3)cnc21 | < 0.5 |

same assay, conditions: Table 6; HCT116, 72 hours; read-out: Activity

| IC50 [µM] | Structure (SMILES) |
| --- | --- |
| < 0.5 | COC1CC(Nc2cnc3c(c2)Sc2ccccc2C(=O)N3CC#CCl)C1 (centres unmarked) [Table 6: —CH2CCCl; 3-MeOcBu; CH/N; S] |
| < 0.5 | CC#CCN1C(=O)c2ccccc2Sc2cc(NC3CC4(CC(O)C4)C3)ccc21 (centres unmarked) |
| < 0.5 | C#CCN1C(=O)c2ccccc2Sc2cc(NC3CC(OC)C3)cnc21 (centres unmarked) [Table 6: —CH2CCH; 3-MeOcBu; CH/N; S] |
| < 0.5 | COCC1CC(Nc2cnc3c(c2)Sc2ccccc2C(=O)N3CC#CCl)C1 (centres unmarked) [Table 6: —CH2CCCl; 3-MeOCH2-cBu; CH/N; S] |
| < 0.5 | C#CCN1C(=O)c2ccccc2Sc2cc(NC3COC3)cnc21 [Table 6: —CH2CCH; oxetan-3-yl; CH/N; S] |

same assay, conditions: Table 7; cell viability assay, CellTiter-Glo, 72 hours; scaffold drawing 42 with R^2, R^3, X/Y, Z; read-out: Activity

| IC50 [µM] | Structure (SMILES) |
| --- | --- |
| 0.5 to 1 | COCCN1C(=O)c2ccccc2Sc2cc(NC(=O)c3ccoc3C)ccc21 [—(CH2)2OMe; 2-Me-furan-3-yl; CH/CH; S] |
| 1 to 5 | COCCN1C(=O)c2ccccc2Sc2cc(NC(=O)c3ccc(F)c(Cl)c3)ccc21 [—(CH2)2OMe; 3-Cl,4-FPh; CH/CH; S] |
| 1 to 5 | COCCN1C(=O)c2ccccc2Cc2cc(NC(=O)c3ccoc3)ccc21 [—(CH2)2OMe; furan-3-yl; CH/CH; CH2] |
| 1 to 5 | COCCN1C(=O)c2ccccc2Sc2cc(NC(=O)c3ccc(OC(F)(F)F)c(F)c3)ccc21 [—(CH2)2OMe; 3-F,4-F3COPh; CH/CH; S] |
| 1 to 5 | COCCN1C(=O)c2ccccc2Sc2cc(NC(=O)c3ccc(C)cc3)ccc21 [—(CH2)2OMe; 4-MePh; CH/CH; S] |
| 1 to 5 | COCCN1C(=O)c2ccccc2Sc2cc(NC(=O)c3cccc(C(N)=O)c3)ccc21 [—(CH2)2OMe; 3-H2NC(O)Ph; CH/CH; S] |
| < 0.5 | CCCCCCN1C(=O)c2ccccc2Sc2cc(NC(=O)c3ccoc3)ccc21 [-nHexyl; furan-3-yl; CH/CH; S] |
| 1 to 5 | C#Cc1cc(C(=O)Nc2ccc3c(c2)Sc2ccccc2C(=O)N3CCOC)ccn1 [—(CH2)2OMe; 2-(HCC)pyrid-4-yl; CH/CH; S] |
| 1 to 5 | COCCN1C(=O)c2ccccc2Sc2cc(NC(=O)c3ccc(NC=O)c(Cl)c3)ccc21 [—(CH2)2OMe; 3-Cl,4-HC(O)NHPh; CH/CH; S] |

same assay, conditions: Table 8; analogs of scaffold drawing 43 defined by R^2, R^3, X/Y, W; read-out: Activity (IC50 class, cell viability assay)

| IC50 [µM] | Structure (SMILES) |
| --- | --- |
| < 0.5 | CC#CCN1C(=O)c2ccccc2Sc2cc(NC(=O)C3CNC(=O)C3)ccc21 (centres unmarked) [—CH2CCMe; 5-oxopyrrolidin-3-yl; CH/CH; CH] |
| < 0.5 | O=C(Nc1ccc2c(c1)Sc1ccc(F)cc1C(=O)N2CC#CC1CC1)C1CC2(COC2)C1 |
| < 0.5 | CC#CCN1C(=O)c2ccccc2Sc2cc(NC(=O)c3ccc(OC)cc3)ccc21 [—CH2CCMe; 4-MeOPh; CH/CH; CH] |
| < 0.5 | CC#CCN1C(=O)c2ccccc2Sc2cc(NC(=O)C34CC(C)(C3)C4)cnc21 |
| < 0.5 | O=C(Nc1cnc2c(c1)Sc1cc(Cl)ccc1C(=O)N2CC#CCl)C1CC2(CC(=NO)C2)C1 (centres unmarked) |
| < 0.5 | COCC1CC(C(=O)Nc2ccc3c(c2)Sc2ccccc2C(=O)N3CC#CC(F)(F)F)C1 (centres unmarked) [—CH2CCCF3; 3-MeOCH2-cBu; CH/CH; CH] |
| < 0.5 | CC#CCN1C(=O)c2ccc(F)cc2Sc2cc(NC(=O)c3cccc(OC)c3)ccc21 [—CH2CCMe; 3-MeOPh; CF/CH; CH] |
| < 0.5 | CC#CCN1C(=O)c2ccc(Cl)cc2Sc2cc(NC(=O)[C@H]3C[C@@H](OC)C3)ccc21 [—CH2CCMe; cis-3-MeOcBu; CCI/CH; CH] |
| < 0.5 | CC#CCN1C(=O)c2ccccc2Sc2cc(NC(=O)C=CCO)ccc21 [—CH2CCMe; CH—CHCH2OH; CH/CH; CH] |
| < 0.5 | CC#CCN1C(=O)c2ccccc2Sc2cc(NC(=O)C3CC4(COC4)C3)cnc21 |
| < 0.5 | CC#CCN1C(=O)c2ccc(Cl)cc2Sc2cc(NC(=O)[C@@H]3C[C@H]3C(=O)OC)ccc21 (relative stereo) [—CH2CCMe; trans-2-MeO2C-cPr; CCl/CH; CH] |
| < 0.5 | CC#CCN1C(=O)c2ccccc2Sc2cc(NC(=O)C3CC4(CC(=NOC)C4)C3)cnc21 (centres unmarked) |
| < 0.5 | CON=C1CC2(C1)CC(C(=O)Nc1cnc3c(c1)Sc1ccc(F)cc1C(=O)N3CC#CC1CC1)C2 (centres unmarked) |
| < 0.5 | CC#CCN1C(=O)c2ccccc2Sc2cc(NC(=O)c3ccc(OC)cc3)cnc21 [—CH2CCMe; 4-MeOPh; CH/CH; N] |
| < 0.5 | CC#CCN1C(=O)c2ccc(C#N)cc2Sc2cc(NC(=O)[C@@H]3C[C@H]3COC)cnc21 (relative stereo) [—CH2CCMe; trans-2-MeOCH2-cPr; CCN/CH; N] |
| < 0.5 | COC[C@@H]1C[C@H]1C(=O)Nc1ccc2c(c1)Sc1cc(Cl)ccc1C(=O)N2CC#CCl (relative stereo) [—CH2CCCl; trans-2-MeOCH2-cPr; CCl/CH; CH] |
| < 0.5 | COCC1CC1C(=O)Nc1cnc2c(c1)Sc1ccccc1C(=O)N2CC#CC1CC1 (racemic) [—CH2CC^cPr; trans-2-MeOCH2-cPr; CH/CH; N] |
| < 0.5 | CO[C@H]1C[C@H](C(=O)Nc2ccc3c(c2)Sc2cc(Cl)ccc2C(=O)N3CC#CCl)C1 [—CH2CCCl; trans-3-MeOcBu; CCI/CH; CH] |

same assay, conditions: Table 9; HCT116, 72 hours; read-out: Activity

| IC50 [µM] | Structure (SMILES) |
| --- | --- |
| < 0.5 | CC#CCN1C(=O)c2ccccc2C(C)c2cc(NC(=O)C3COC3)ccc21 (centres unmarked) [Table 9: —CH2CCMe; oxetan-3-yl; CHMe] |
| < 0.5 | CC#CCN1C(=O)c2ccccc2Cc2cc(NC(=O)[C@H]3C[C@H](OC)C3)ccc21 [Table 9: —CH2CCMe; trans-3-MeOcBu; CH2] |
| < 0.5 | CC#CCN1C(=O)c2ccccc2Cc2cc(NC(=O)C34CC(O)(C3)C4)ccc21 |
| < 0.5 | CC#CCN1C(=O)c2ccccc2C(C)c2cc(NC(=O)CCCO)ccc21 (centres unmarked) [Table 9: —CH2CCMe; (CH2)3OH; CHMe] |
| < 0.5 | CO[C@H]1C[C@@H](C(=O)Nc2ccc3c(c2)Cc2ccccc2C(=O)N3CC#CC2CC2)C1 [Table 9: —CH2CCCPr; cis-3-MeOcBu; CH2] |

same assay, conditions: cell viability assay; Table 10 analogs of scaffold drawing 45 defined by R2, R3, X/Y, W; read-out: Activity

| IC50 [µM] | Structure (SMILES) |
| --- | --- |
| < 0.5 | COC12CC(C(=O)Nc3cnc4c(c3)Sc3ccccc3C(=O)N4CC#CCF)(C1)C2 |
| < 0.5 | CC#CCN1C(=O)c2ccccc2Sc2cc(NC(=O)C34CC(OC)(C3)C4)ccc21 |
| < 0.5 | CC#CCN1C(=O)c2ccc(Cl)cc2Sc2cc(NC(=S)C34CC(OC)(C3)C4)ccc21 |

Reference: US20260097047A1, “Small molecule inhibitors of the ribosome biogenesis factor NVL2” (Board of Regents, The University of Texas System, priority 2023, published 2026)
